# Measurements published in patent EP4480497A1, “BIO-CONJUGATES FOR ONCOLOGY” (priority 2023, dated 2024).
# Assays:
# [1] = test system: triple negative breast tumour cells MDA-MB231; assay: ATPlite luminescence ATP assay in MDA-MB231 cells (Example 5); type: cell-based; conditions: MDA-MB231, ATP assay after a 72h treatment, Figure 5A
# Description: Dose-response curves in triple negative breast tumour cells MDA-MB231 and IC50 values obtained from an ATP assay after a 72h treatment with CROMOC36, CROMOC36-DM1 and the unconjugated DM1 molecule is shown in Figure 5A. The x-axis indicates the drug concentration (nM) in log scale, and the y-axis indicates the % of cell viability as measured by the ATP levels in the treated cells relative to the DMSO control.
# The cytotoxic effect of CROMOC-DM1 conjugates was evaluated on the MDA-MB-231 cell line by means of the ATPlite Luminescence ATP Detection Assay System. The cytotoxic effect of the different CROMOC conjugated with DM-1 was compared to that of non-conjugated CROMOCs. Cells treated only with the medium were used as control. Briefly, the cells were seeded in black 96-well plates at a density of 2000 cells/well. After 24 h, cells were treated with increasing concentrations of the conjugates (range 0.02 - 500 nM in CROMOC, n=11) for 72 hours. To quantify ATP production, cells were treated following the manufacturer's instructions, and luminescence was quantified by means of a Victor Nivo multi-plate reader (Perkin Elmer, Waltham, MA, USA). The percentage of cell viability was determined as (luminescencetreated cells/luminescencecontrol cells) × 100. IC50 values were calculated using GraphPad Prism 9.0 (San Diego, CA, USA) by a nonlinear regression model.
# [2] = test system: tumour xenograft LIXF HEP3B (hepatocellular carcinoma); assay: Orthotopic hepatocellular carcinoma xenograft, anti-tumour efficacy (Example 7); type: in vivo, NMRI nude mice; conditions: seven to eight mice per group, each substance at its one regimen
# Description: The experiment comprised a reference group (Group 1) dosed with phosphate buffered saline and four treatment groups (Groups 2 to 5). […] The daily dose was split, the daily dosing interval was 6 hours. Mice were either sacrificed individually when their general condition required sacrifice or at termination of the experiment. The group size at the start of dosing was seven to eight mice per group, bearing orthotopic growing LIXF HEP3B.
# [3] = Tolerability (mortality, body weight, skin) in the LIXF HEP3B xenograft study (Example 7); type: in vivo, NMRI nude mice
# Description: The experiment comprised a reference group (Group 1) dosed with phosphate buffered saline and four treatment groups (Groups 2 to 5). […] CROMOC62 was given subcutaneously every second week for 4 weeks at 32 (induction dosing on day 0) and 16 (day 14 and 28) mg/kg/d. Sorafenib was applied daily for 6 days in mono and combined therapy and additional 6 days (9-14) exclusively in monotherapy per oral at 200 mg/kg/d. The daily dose was split, the daily dosing interval was 6 hours. Mice were either sacrificed individually when their general condition required sacrifice or at termination of the experiment. The group size at the start of dosing was seven to eight mice per group, bearing orthotopic growing LIXF HEP3B. […] CROMOC62 was given at one dose levels (32 mg/kg on day 0 and 16 mg/kg/d on days 14 and 28) in monotherapy or in combination with sorafenib which was given at one dose level (200 mg/kg/d on days 0-5). The effect of sorafenib monotherapy was also assessed (200 mg/kg/d on day 0-5 and 9-14).
Structure (SMILES),IC50 [1] [nM],complete remissions (number of mice) [2],partial remissions (number of mice) [2],"mortalities ([3]; LIXF HEP3B study, seven to eight mice per group, each substance at its one regimen)","maximum body weight loss ([3]; on day 16, sorafenib 12x200 mg/kg/d per oral) [%]"
"COc1cc2cc(c1Cl)N(C)C(=O)C[C@H](OC(=O)[C@H](C)N(C)C(=O)CCS)[C@]1(C)O[C@H]1[C@H](C)[C@@H]1C[C@@](O)(NC(=O)O1)[C@H](OC)/C=C/C=C(\C)C2 [DM1, DM1 Maytansinoid]",~0.95,,,,
CNC(=O)c1cc(Oc2ccc(NC(=O)Nc3ccc(Cl)c(C(F)(F)F)c3)cc2)ccn1 [sorafenib],,five,two,One out of eight,2.5
